According to a melting point compilation (Tetko et al.; mined from patent text by program, amines drawn as free bases though some values may be those of a salt):

melting point [°C] | Compound
217 to 219 | O=C1N=CN(c2ccc(Cl)cc2)C12CCN(Cc1ccccc1)CC2
121 | Nc1ccccc1N1CCN(CCCCn2c(=O)[nH]c(=O)c3ccccc32)CC1
223 to 224 | O=C(O)COc1ccc(CN2C(=O)C3(COc4cc5c(cc43)OCCO5)c3ccccc32)cc1 (configuration not stated)
205 to 208 | COC(=O)c1oc2ccc(Cl)cc2c1-c1ccccc1C(F)(F)F
172 to 176 | CS(=O)(=O)c1ccc(C(CC2CCCC2)C(=O)Nc2ncc(C(=O)O)s2)cc1 (configuration not stated)
89 to 91 | CCC(C)c1ccccc1N (configuration not stated)
50 to 51 | CCCCCCCCCCCCCCCCCC(=S)SCC(C)C(=O)N1CCCC1C(=O)O (configuration not stated)
260 to 261 | CSc1nccc(-c2c[nH]c(=O)n2-c2ccc(F)cc2)n1
212 to 214 | Nc1ncc(I)c(N)n1
98 to 99 | COc1cc(C)c(C(=O)c2c(OC)cnc(Cl)c2Cl)c(OC)c1OC
262 to 263 | O=C(NCc1ccncc1)c1cc(-n2cnn(Cc3ccc(F)cc3)c2=O)n[nH]1
99 to 103 | O=C(N1CCc2ccc(S(=O)(=O)F)cc2C1)C(F)(F)F
122 to 123 | CC1CCC(C(C)C)C(OC(=O)C2(CC(N)=O)C(=O)N(Cc3ccc(Br)cc3F)C(=O)c3cccn32)C1 (configuration not stated)
111 | CCc1cn2ccccc2c1S(=O)(=O)c1ccc(OCCCCBr)cc1
130 to 131 | CCOC(=O)C(Cl)(Cl)CCCCCCCCCCCCSc1ccc(NC(=O)c2ccc(Cl)cc2)cc1
165 to 167 | CCCc1ccc2c(c1CCC(=O)O)CCC(NS(=O)(=O)c1ccc(Cl)cc1)C2 (configuration not stated)
280 to 281 | O=C(Nc1ccc(-n2nc(C3CC3)cc2C2CC2)c(F)c1)c1c(Cl)cncc1Cl
117 to 119 | Cc1c(SCCCn2ccnc2)ccnc1CSc1ccncc1
154 to 158 | CCCCc1nc(Cl)c(CN2CCN(c3ccccc3OC)CC2)n1Cc1ccc(-c2ccccc2-c2nnn[nH]2)cc1
191 to 193 | CC(C)n1nc(-c2nc(C3=CCCN(C)C3)c(N)nc2-c2ccccc2)ccc1=O
205 to 206 | CC(=O)Nc1cc2c(cc1[N+](=O)[O-])[C@@H](O)[C@H](Br)C(C)(C)O2 (relative stereo)
305 to 311 | O=S1(=O)N=C(O)c2ccc(-c3ccccn3)cc21
185 to 195 | CNC(=O)C1CC(c2ccc(-c3ccc(N4C[C@H](Cn5ccnn5)OC4=O)cc3F)cn2)=NO1 (some centres not stated)

melting point [°C] | Compound
177 to 179 | COc1cc(C2c3cc4c(cc3C(NC3=CC(=O)N(Cc5ccc(NC(C)=O)cc5)C3=O)C3COC(=O)C23)OCO4)cc(OC)c1O[Si](C)(C)C(C)(C)C (configuration not stated)
312 to 322 | COc1cc(-c2sc3nc(N)[nH]c(=O)c3c2C)ccc1Cl
99 to 101 | COC(=O)c1cncc(-c2ccc(OC)cc2)c1
84.3 to 86.2 | CCOC(=O)C1=Cc2cc(C=O)ccc2OC1C(F)(F)F (configuration not stated)
93 to 94 | O=S(c1nc2ccccc2s1)N1CCOCC1 (configuration not stated)
161 to 163 | COc1ccc(C2(C#N)CC=C(C(=O)O)CC2)cc1OC1CCCC1 (configuration not stated)
80 to 83 | N#Cc1cccc(N=C(NCC(=O)O)NCC2CCCCC2)c1
102 to 104 | COc1cc(Oc2cccc(C(F)(F)F)c2)nc(C(=O)NC(OC)C(F)(F)F)c1 (configuration not stated)
89.5 to 90 | CCOC(=O)C1(C(=O)Nc2ccc(Br)cc2C)CC1
218 to 220 | Cc1ccc([N+](=O)[O-])c(NC=C2C(=O)OC(C)(C)OC2=O)c1
79 to 84 | C#CC(O)(CO)C(O)c1ncnc2c1ncn2Cc1ccc2c(c1)Nc1nccnc1S2 (configuration not stated)
181 | CCS(=O)(=O)c1cc(C(=O)NCC2CCCN2CC2CC2)c(OC)cc1N (configuration not stated)
141 to 142 | Nc1ncnc2c(C3OC(CO)C(O)C3O)[nH]nc12 (configuration not stated)
162 | COC(=O)C1(Nc2cc(Cl)c(Cl)cc2N)CCSC1 (configuration not stated)
142 to 145 | CC(=O)NC[C@H]1CN(c2ccc3c(c2)CCOC3)C(=O)O1
70 to 72 | OC(COc1ccc(-c2ccccc2Br)cc1)CN1CCCC1 (configuration not stated)
68 to 72 | COc1ccc(CN(CCN(C)CCCCNC(=O)NCCCOc2cccc(CN3CCCCC3)c2)c2ccccn2)cc1
205 to 208 | CCCCCN(C[C@H]1CC[C@H](CN(CCCCC)C(=O)Nc2ccc(N(C)C)cc2)CC1)C(=O)Nc1ccc(N(C)C)cc1
134 | CNc1nc(SC)ncc1C
134 to 136 | CC(C)(C)c1cc(-c2nn(CCOC(=O)c3cccnc3)c3ncccc23)cc(C(C)(C)C)c1O
134 to 136 | CC(C)(C)NC(=O)C1(O)CC(C)(C)NC(C)(C)C1
113 | Cc1ccc([N+](=O)[O-])cc1C=CC#N
147 to 148 | CCn1ncnc1COc1nc2c(cnn2-c2ccccc2)c2ccccc12

melting point [°C] | Compound
267 | NS(=O)(=O)c1cccc(-c2cccc(-c3nc(-c4ccc(C(F)(F)F)cc4)cc(C(F)(F)F)n3)c2)c1
227 to 228 | CNC(=O)Nc1snc(S(C)(=O)=O)c1C(N)=O
160 to 161 | CS(=O)(=O)c1cc(F)cc(Cc2cc3cccc(-c4cccc(C(=O)NCC(N)=O)c4)c3s2)c1
180 to 182 | CC1=C(C(=O)OCCC#N)C(c2ccccc2Cl)C(c2nnco2)=C(C)N1 (configuration not stated)
164 to 165 | CC(C)(C)OC(=O)N[C@H](Cc1cn(Cc2ccccc2)c2ccccc12)C(=O)O
185 to 187 | CC(C)CNc1nc2c(n1C)C(=O)N1CCN=C1N2Cc1ccc(Cl)cc1
134 to 135 | CCCCCCNc1cc(-c2nc(=O)c3ccccc3s2)ccn1
76 | CCCC(=O)Nc1ccccc1C(F)(F)F
63 to 65 | CCOC(=O)CCc1cc(Cl)c(Cl)cc1C(=O)CCCNC(C)=O
169 to 170 | CCCN(CCN1CCN(C(=O)c2cc3ccccc3[nH]2)CC1)C1CCc2c(O)cccc2C1 (configuration not stated)
131 to 133 | Clc1ncc(C(c2ccccc2)c2ccccc2)cc1C(c1ccccc1)c1ccccc1
> 250 | CCCn1c(=O)c2[nH]c(-c3ccsc3)nc2n(CCC)c1=O
114 to 115 | CCOC(=O)c1cnn2c1c(NC1CCCCCC1)nc1ccccc12
109 to 111 | CCN(C)c1nc2cc(Br)ccn2n1
115 to 130 | NCCCNc1ccc(NCCCN)c2c1C(=O)c1c(O)ccc(O)c1C2=O
43 to 45 | CCCCCCCCNC(=O)n1nc(Oc2c(Cl)cc(C(F)(F)F)cc2Cl)cc1C
237 to 239 | O=[N+]([O-])c1cnc(Sc2nnc(O)n2C2CCCCC2)s1
146 to 149 | CNC(=O)c1c(-c2ccccc2)noc1CC(=O)c1ccccn1
314 to 318 | COc1ccc(-c2nnc3c4ccccc4c(Nc4cccc(C(=O)Nc5ccc(N(C)C)cc5)c4)nn23)cc1
157 to 161 | CCOC(=O)C1=C(C(F)(F)F)Nc2n[nH]cc2C1c1cccs1 (configuration not stated)
160 to 162 | Cc1cccc(CCC(=O)Cn2ccnc2)c1
151 | Cc1nc(C(F)F)c(C(=O)Nc2ccccc2-c2ccc(Br)cc2)s1
210 | Cc1ccc(S(=O)(=O)NC(=O)OCCc2ccc(-n3c(CCC(=O)N4CCCCC4)nc4cc(C(F)(F)F)c(Cl)cc43)cc2)cc1

melting point [°C] | Compound
301 to 304 | O=c1[nH]c2cc(Cl)cc(Cl)c2c(=O)n1Cc1ccc(F)cc1
> 250 | CCOC(=O)N1CCc2c(cnc3nc(/C=C4/C(=O)N5C(C(=O)O)=CS[C@H]45)nn23)C1
174 to 175 | CC(C)(C)c1cc(-c2nn(-c3ccccc3)c3ncccc23)cc(C(C)(C)C)c1O
65 to 70 | CCCCCCCCCCCCCCCCCCCCCCCCCCCCOC(=O)c1cccnc1
210 to 215 | CCOC(=O)c1cn(-c2nnnn2C)c2nc(Cl)c(F)cc2c1=O
75 | C=CCOc1ccc(Oc2ccc(C(=O)OC)cc2)cc1
112 to 117 | CCOC(=O)c1ccc(NCCC(c2ccc(Cl)cc2)c2ccc(Cl)cc2)cc1
116 to 122 | CN1CCC(O)(CNC=O)CC1
210 to 211 | COc1ccc(C[C@@H](NC(=O)c2ccc(F)c3ccccc23)[C@@H](O)c2ccc(F)cc2)cc1 (racemic)
218 | O=C(O)CNC(=NS(=O)(=O)c1ccccc1)Nc1cccc(Cl)c1
251 to 253 | Cc1ccc(-c2nc(C)c3c(=O)[nH]ncn23)cc1
120 | CC1Nc2ccc(NC(=O)c3ccc(C(=NN)C(=O)OCc4ccccc4)cc3)cc2CN(CCc2ccccc2)C1=O (configuration not stated)
142 to 143 | CC1=C(C)C(=O)C(C(C)c2ccc(CC(=O)O)cc2)=C(C)C1=O (configuration not stated)
143 | COc1cc(C(C)C)cc(OC)c1-c1nc(N)sc1CCC1CCCCC1
32 to 34.5 | Cc1cc(Cl)cc(CO)c1
280 | O=C(O)CSc1nc(-n2cc(C3c4ccccc4C=Cc4ccccc43)c(=S)[nH]c2=O)ncc1-c1ccc(CC(=O)O)cc1
101 to 103 | Cc1nc2ccc(NCCCN3CCC(OC(c4ccccc4)c4ccccc4)CC3)nn2c1C(=O)O
137 to 139 | COc1ccc(NC(=N)c2cccnc2)cc1
86 to 88 | COc1ccc(C(C#Cc2ccccc2)CC(=O)O)cc1OC1CCCC1 (racemic)
158 to 160 | FC(F)(F)c1cccc(C2OC3(CCNCC3)N3CCCCC23)c1 (configuration not stated)
154 to 155 | Nc1nc2ccccc2c2c1ncn2CCOCC#Cc1ccccc1C(F)(F)F
181 to 183 | COc1ccc(-c2ccc(C(=O)NO)cc2)cc1OC1CCCC1

Compound | melting point [°C]
CCC(C)(Cc1c[nH]c2ccc(F)cc12)[N+](=O)[O-] (configuration not stated) | 71 to 72
CC12CCC(O)CC1CCC1C2CCC2(C)C(C=NNC(=N)N)CCC12O (configuration not stated) | 163 to 165
CN1CCN(c2ccc(O)c3c2C[C@H](N)CC3)CC1 | 238 to 239
CC1CCN(C(C#N)C2(c3ccc(Cl)c(Cl)c3)CCC2)CC1 (configuration not stated) | 76 to 78
Cc1cncc2c1C(=N)N(Cc1ccccc1)S2(=O)=O | 37 to 39
O=C1NCN(c2ccccc2)C12CCN(C[C@@H]1CCc3ccccc3[C@H]1O)CC2 (relative stereo) | 204 to 205
